The subject of experiment [1] is UCP1 (uncoupling protein-1). The experiment is described as follows: Adipocyte differentiation induction experiment: relative UCP1 expression by real time PCR in C3H10T1/2 cells differentiated into white adipocytes. The format is cell-based. The conditions noted are these: compound 20 μM; for Relative expression level of UCP1 compared to DMSO: relative to DMSO control; for Relative expression level of UCP1 compared to butein: relative to butein 20 μM control. On the procedure: C3H10T1/2 cells were commercially purchased, and then differentiated into white adipocytes. The differentiated adipocytes were treated with the compounds obtained in the Preparation Examples at a concentration of 20 μM. A group treated with DMSO at a concentration of 20 μM and a group treated with butein at a concentration of 20 μM were used as a control group, respectively.
While the UCP1 (uncoupling protein-1) is contained in the mitochondria of brown adipocytes or beige adipocytes, it is difficult to find UCP1 in white adipocytes having little mitochondria. Therefore, by measuring the expression level of UCP1, it is possible to determine whether preadipocytes have differentiated into white adipocytes or otherwise brown adipocytes or beige adipocytes. The higher the expression level of UCP1, the more differentiated preadipocytes into brown adipocytes or beige adipocytes.
On the technique in general: Real-time PCR tracks product formation cycle by cycle.

Another experiment has as its system UCP1. The conditions noted are these: reported in US Patent Publication No. US 2015/0374643 A1; cited from earlier work.

On to `COc1ccc(-n2cc(-c3ccc(O)c(O)c3)nn2)c(OC)c1` [Compound 1, 4-(1-(2,4-dimethoxyphenyl)-1H-1,2,3-triazole-4-yl)benzene-1.2-diol], for which, in experiment [1], the “Relative expression level of UCP1 compared to DMSO” value (from here on “Relative expression level … to DMSO”) is on record as 3.5 and the “Relative expression level of UCP1 compared to butein” value was determined as 12.2.
On to `Oc1ccc(-c2cn(-c3ccc(Cl)cc3)nn2)cc1O` [Compound 2, 4-(1-(4-chlorophenyl)-1H-1,2,3-triazole-4-yl)benzene-1,2-diol], for which, in experiment [1], the “Relative expression level … to DMSO” value is listed as 6.6 and the “Relative expression level of UCP1 compared to butein” value is on record as 18.6.
Taken in the same sequence, the figures for `Oc1ccc(-c2cn(-c3ccc(F)cc3)nn2)cc1O` [Compound 3, 4-(1-(4-fluorophenyl)-1H-1,2,3-triazole-4-yl)benzene-1,2-diol] were 12.2 and 34.1.
In the same order, the values of `Oc1ccc(-n2cc(-c3ccc(O)c(O)c3)nn2)cc1` [Compound 4, 4-(1-(4-hydroxyphenyl)-1H-1,2,3-triazole-4-yl)benzene-1,2-diol] are 2.1 and 18.6.
In the same order, the values of `Cc1cc(-n2cc(-c3ccc(O)c(O)c3)nn2)ccc1O` [Compound 5, 4-(1-(4-hydroxy-3-methylphenyl)-1H-1,2,3-triazole-4-yl)benzene-1.2-diol] are 2.3 and 20.6.
For `OCCOc1ccc(-n2cc(-c3ccc(O)c(O)c3)nn2)cc1` [Compound 15, 4-(1-(4-(2-hydroxyethoxy)phenyl)-1H-1,2,3-triazole-4-yl)benzene-1,2-diol], in experiment [1], the “Relative expression level … to DMSO” value stood at 1.6 and the “Relative expression level of UCP1 compared to butein” value is recorded as 26.9.
In the same order, the values of `C[NH+](C)CCOc1ccc(-n2cc(-c3ccc(O)c(O)c3)nn2)cc1.[Cl-]` [Compound 16, 4-(1-(4-(2-(dimethylamino)ethoxy)phenyl)-1H-1,2,3-triazole-4-yl)benzene-1,2-diol Hydrochloride] are 2.3 and 37.0.
On to `Nc1c(-c2ccc(Cl)cc2)nnn1-c1ccc(O)c(O)c1` [Compound 24, 4-(5-amino-4-(4-chlorophenyl)-1H-1,2,3-triazole-1-yl)benzene-1,2-diol], for which, in experiment [1], the “Relative expression level … to DMSO” value amounted to 10.6 and the “Relative expression level of UCP1 compared to butein” value was determined as 29.7.
On to `O=C(/C=C/c1ccc(O)c(O)c1)c1ccc(O)cc1O` [butein], for which the “Effect on expression level of UCP1” value with UCP1 is listed as “increases the expression level of UCP1”.

Source of the values: patent US12297178B2, “Triazole derivative and use thereof” (GYEONGGIDO BUSINESS & SCIENCE ACCELERATOR, priority 2017, dated 2025).
